Measurements: PubChem BioAssay AID248 (DTP/NCI, 2004)
“And” between values parts separate entries of the source, which are not always exact repeats. Identical values can stand only once. Inconclusive results and toxic doses are left out. No stated cut-off is given here; in the data, active means T/C of 150% or more; inactive means T/C below 125%.

System: L1210 leukemia ip in BDF1 mice, survival T/C
Assay: NCI In Vivo Anticancer Drug Screen. Data for tumor model L1210 Leukemia (intraperitoneal) in B6D2F1 (BDF1) mice
Conditions: endpoint: mean survival time, higher = longer survival
Procedure, shortened: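 Each compound was tested against a transplantable tumor grown in mice. The endpoint was survival, with treated animals benchmarked against vehicle controls as a simple ratio.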

[1] = dose: 100.0 mg/kg/injection, schedule: Q01DX001 (ip), vehicle: carboxymethylcellulose (CMC)
[2] = dose: 100.0 mg/kg/injection, schedule: Q01DX001 (ip), vehicle: saline
[3] = dose: 200.0 mg/kg/injection, schedule: Q01DX001 (ip), vehicle: carboxymethylcellulose (CMC)
[4] = dose: 200.0 mg/kg/injection, schedule: Q01DX001 (ip), vehicle: saline
[5] = dose: 400.0 mg/kg/injection, schedule: Q01DX001 (ip), vehicle: carboxymethylcellulose (CMC)
[6] = dose: 400.0 mg/kg/injection, schedule: Q01DX001 (ip), vehicle: saline
[7] = dose: 100.0 mg/kg/injection, schedule: Q01DX009 (ip), vehicle: saline with Tween-80
[8] = dose: 200.0 mg/kg/injection, schedule: Q01DX009 (ip), vehicle: saline with Tween-80
[9] = dose: 400.0 mg/kg/injection, schedule: Q01DX009 (ip), vehicle: saline with Tween-80
[10] = dose: 100.0 mg/kg/injection, schedule: Q04DX002 (ip), vehicle: saline with Tween-80
[11] = dose: 200.0 mg/kg/injection, schedule: Q04DX002 (ip), vehicle: saline with Tween-80
[12] = dose: 400.0 mg/kg/injection, schedule: Q04DX002 (ip), vehicle: saline with Tween-80
[13] = dose: 100.0 mg/kg/injection, schedule: Q04DX003 (ip), vehicle: Klucel (hydroxypropylcellulose) (HPC)
[14] = dose: 100.0 mg/kg/injection, schedule: Q01DX001 (ip), vehicle: Klucel (hydroxypropylcellulose) (HPC)
[15] = dose: 200.0 mg/kg/injection, schedule: Q01DX001 (ip), vehicle: Klucel (hydroxypropylcellulose) (HPC)
[16] = dose: 200.0 mg/kg/injection, schedule: Q04DX003 (ip), vehicle: Klucel (hydroxypropylcellulose) (HPC)
[17] = dose: 400.0 mg/kg/injection, schedule: Q04DX003 (ip), vehicle: Klucel (hydroxypropylcellulose) (HPC)
[18] = dose: 100.0 mg/kg/injection, schedule: Q01DX009 (ip), vehicle: Klucel (hydroxypropylcellulose) (HPC)
[19] = dose: 200.0 mg/kg/injection, schedule: Q01DX009 (ip), vehicle: Klucel (hydroxypropylcellulose) (HPC)
[20] = dose: 100.0 mg/kg/injection, schedule: Q04DX003 (ip), vehicle: saline
[21] = dose: 200.0 mg/kg/injection, schedule: Q04DX003 (ip), vehicle: saline

Measured: T/C

CCCCCCCNC1=C(C)C(=O)C(NCCCCCCC)=C(C)C1=O
inactive: [1] 96 % of control | [2] 93 % of control | [3] 96 % of control | [4] 96 % of control | [5] 89 % of control | [6] 93 % of control

O=C1O/C(=C\c2ccccc2)c2ccccc21
inactive: [2] 101 % of control | [7] 94 % of control | [4] 94 % of control | [8] 97 % of control | [6] 99 % of control | [9] 94 % of control

O=C(O)C(CS(=O)(=O)O)Nc1ncnc2nc[nH]c12 (stereo unspecified)
inactive: [2] 93 % of control | [4] 98 % of control | [6] 98 % of control

Cc1cc(=O)oc2cc(OS(C)(=O)=O)ccc12
inactive: [1] 113 % of control | [3] 107 % of control | [5] 98 % of control

CCn1cc(C(=O)O)c(=O)c2cc3c(cc21)OCO3
inactive: dose: 100.0 mg/kg/injection, schedule: Q01DX001 (ip), vehicle: other 96 % of control | dose: 200.0 mg/kg/injection, schedule: Q01DX001 (ip), vehicle: other 108 % of control | dose: 400.0 mg/kg/injection, schedule: Q01DX001 (ip), vehicle: other 98 % of control

O=C(/C=C/c1ccccc1Cl)c1ccc(F)cc1
inactive: [10] 94 % of control | [11] 94 % of control | [12] 97 % of control

CC(C#N)NC(=O)NC(C)C(N)=O (stereo unspecified)
inactive: [2] 107 % of control | [4] 107 % of control | [6] 97 % of control

NC(=S)N/N=C\c1ccc(/C=N/NC(N)=S)cc1
inactive: dose: 50.0 mg/kg/injection, schedule: Q01DX001 (ip), vehicle: saline 90 % of control | [2] 93 % of control | [4] 90 % of control

CCCCN1C(c2ccccc2)=CN(Cc2ccccc2)C=C1c1ccccc1
inactive: dose: 100.0 mg/kg/injection, schedule: Q04DX002 (ip), vehicle: Klucel (hydroxypropylcellulose) (HPC) 106 % of control | dose: 200.0 mg/kg/injection, schedule: Q04DX002 (ip), vehicle: Klucel (hydroxypropylcellulose) (HPC) 110 % of control | dose: 400.0 mg/kg/injection, schedule: Q04DX002 (ip), vehicle: Klucel (hydroxypropylcellulose) (HPC) 103 % of control

O=S(=O)(Oc1ccc(Cl)cc1Cl)c1ccc(Cl)cc1
inactive: dose: 75.0 mg/kg/injection, schedule: Q04DX003 (ip), vehicle: Klucel (hydroxypropylcellulose) (HPC) 93 % of control | dose: 150.0 mg/kg/injection, schedule: Q04DX003 (ip), vehicle: Klucel (hydroxypropylcellulose) (HPC) 101 % of control | dose: 300.0 mg/kg/injection, schedule: Q04DX003 (ip), vehicle: Klucel (hydroxypropylcellulose) (HPC) 90 % of control

[O]=[Sn]([OH])[c]1ccccc1
inactive: [10] 102 % of control | [11] 105 % of control | [12] 94 % of control

CCOC(=O)NN=C1CCCC1
inactive: dose: 50.0 mg/kg/injection, schedule: Q01DX009 (ip), vehicle: saline with Tween-80 94 % of control | [7] 97 % of control

Cc1ccc(S(=O)(=O)NS(=O)(=O)c2ccc(C)cc2)cc1
inactive: [2] 101 % of control | [13] 100 % of control | [4] 106 % of control

O=c1cc(NCc2cccc3ccc(Cl)cc23)[nH]c(=O)[nH]1
inactive: dose: 50.0 mg/kg/injection, schedule: Q01DX001 (ip), vehicle: Klucel (hydroxypropylcellulose) (HPC) 92 % of control | [14] 88 % of control | [15] 87 % of control

CCCCC(=O)C(CCC)C(=O)Nc1ccccc1 (stereo unspecified)
inactive: dose: 50.0 mg/kg/injection, schedule: Q04DX003 (ip), vehicle: Klucel (hydroxypropylcellulose) (HPC) 98 % of control | [1] 100 % of control | [13] 94 % of control and 98 % of control | [3] 91 % of control | [16] 96 % of control and 98 % of control | [5] 91 % of control | [17] 98 % of control

Cc1c(C)c(CN)c(C)c(C)c1CN
inactive: [18] 91 % of control | [13] 103 % of control | [19] 100 % of control | [16] 98 % of control

COc1cc(/C=C\C(=O)O)cc(Cl)c1O
inactive: dose: 50.0 mg/kg/injection, schedule: Q01DX009 (ip), vehicle: saline + alcohol 94 % of control | dose: 100.0 mg/kg/injection, schedule: Q01DX009 (ip), vehicle: saline + alcohol 101 % of control | dose: 200.0 mg/kg/injection, schedule: Q01DX009 (ip), vehicle: saline + alcohol 105 % of control

COc1ccc(/C=C2\N=C(c3cc(OC)c(OC)c(OC)c3)OC2=O)cc1Br
inactive: [7] 91 % of control | [8] 91 % of control | [9] 102 % of control

O=C1OC(=O)C2C(c3ccccc3)C=C(Cl)C(CCCl)C12 (stereo unspecified)
inactive: [14] 101 % of control | [15] 97 % of control | dose: 400.0 mg/kg/injection, schedule: Q01DX001 (ip), vehicle: Klucel (hydroxypropylcellulose) (HPC) 95 % of control

O=C1/C(=C\c2ccccc2)C(Br)c2ccccc21 (stereo unspecified)
inactive: dose: 12.5 mg/kg/injection, schedule: Q01DX009 (ip), vehicle: water 95 % of control | dose: 12.5 mg/kg/injection, schedule: Q04DX003 (ip), vehicle: water 100 % of control | dose: 25.0 mg/kg/injection, schedule: Q01DX009 (ip), vehicle: water 97 % of control | dose: 25.0 mg/kg/injection, schedule: Q04DX003 (ip), vehicle: water 91 % of control | dose: 50.0 mg/kg/injection, schedule: Q01DX009 (ip), vehicle: water 100 % of control | dose: 50.0 mg/kg/injection, schedule: Q04DX003 (ip), vehicle: water 92 % of control

Clc1nccnc1C(Cl)(Cl)Cl
inactive: dose: 50.0 mg/kg/injection, schedule: Q01DX009 (ip), vehicle: other 92 % of control | dose: 100.0 mg/kg/injection, schedule: Q01DX009 (ip), vehicle: other 95 % of control

NC(=S)Nc1ccccc1Cl
inactive: [2] 103 % of control | [4] 101 % of control

C1CCC2C(C1)CCCC2CCC1CCCC2CCCCC21 (stereo unspecified)
inactive: dose: 50.0 mg/kg/injection, schedule: Q04DX002 (ip), vehicle: saline with Tween-80 95 % of control | [10] 92 % of control | [11] 89 % of control | [12] 100 % of control

CCSC(SCC)C(O)C(O)C(O)C(O)CO (stereo unspecified)
inactive: [18] 101 % of control and 98 % of control | [13] 101 % of control and 92 % of control | [20] 101 % of control | [19] 106 % of control and 97 % of control | [16] 101 % of control and 95 % of control | [21] 93 % of control | dose: 400.0 mg/kg/injection, schedule: Q01DX009 (ip), vehicle: Klucel (hydroxypropylcellulose) (HPC) 114 % of control and 97 % of control | [17] 101 % of control and 92 % of control | dose: 400.0 mg/kg/injection, schedule: Q04DX003 (ip), vehicle: saline 92 % of control

CCN(CC)C(C)CN1c2ccccc2Sc2ccccc21 (stereo unspecified)
inactive: dose: 25.0 mg/kg/injection, schedule: Q01DX009 (ip), vehicle: Klucel (hydroxypropylcellulose) (HPC) 97 % of control | dose: 25.0 mg/kg/injection, schedule: Q04DX003 (ip), vehicle: saline 88 % of control | dose: 50.0 mg/kg/injection, schedule: Q01DX009 (ip), vehicle: Klucel (hydroxypropylcellulose) (HPC) 94 % of control | [18] 103 % of control | [20] 96 % of control | [21] 93 % of control
